# Columns and labels:
# [1] = system: glial cell; details: central nervous system; reported; cited from earlier work
# [2] = system: bovine RPE-choroid complex; experiment: Water transport across ex vivo bovine RPE-choroid complex in Ussing-type chamber; type: cell-based
# Method: The effect of DPOFA was examined in an ex vivo bovine RPE-choroid complex model.
# Ringer's solution contained 120 mM NaCl, 5 mM KCl, 23 mM NaHCO3, 1 mM MgCl2, 1.8 mM CaCl2, 2.0 mM taurine, and 10 mM glucose at pH 7.4. The osmolariy of the solution was 295±5 mOsM. The solution was placed in the cell culture incubator set at 37° C. with 5% CO2. The solution was kept in the incubator for at least 2 says before use. Glutathione at final concentration of 1 mM was added to solutions minutes before the use in water transport experiments.
# To prepare 5.5 ml of the 108 mM DPOFA stock solution, 220 mg of DPOFA was weighted. Four milliliters of water was added to the drug followed by addition of 104 microliters of 5M NaCl solution. Small magnetic stirring bar was placed to the drug suspension followed by immersion of the pH electrode. Slow addition of 1N NaOH solution began with careful pH monitoring. NaOH was added until pH reached the 7.2-7.4 range at which point the drug was completely dissolved. pH electrode and magnetic stirring bar were removed, and the volume was adjusted to 5.5 ml. The stock was aliquoted and stored at −20° C. Working DPOFA dilutions were made in Ringer's solution or in PBS.
# An Ussing-type chamber was used to assess water transport across tissues preparations. Three hours before the experiment two Ussing-like chambers were assembled and filled with phosphate buffered saline. The cambers were placed on the thermo-jacketed stand to pre-warm the chambers to the 37° C.
# Bovine eyes were obtained from the local abattoir and placed to the cold Ringer's solution containing 120 mM NaCl, 5 mM KCl, 23 mM NaHCO3, 1 mM MgCl2, 1.8 mM CaCl2, 2.0 mM taurine, and 10 mM glucose pH 7.4. Eyes were transferred to the lab within 2-3 hours after enucleation and rinsed repeatedly in Ringer's solution. Excessive muscle and connective tissue were trimmed at room temperature. The enucleated eye was dissected at pars plana, and the anterior portion was discarded along with the vitreous. If sensory retina detached during the removal of vitreous, the eye was considered unusable and was discarded. After the removal of vitreous, the posterior portion of the eye with the attached neuroretina was visually examined to locate the area not containing large blood vessels in the sclera. Using a size 13 brass cork bore, the selected area was punched through using a hammer.
# The resulting tissue “button” was placed in a Petri dish containing Ringer's solution. The neuroretina was carefully peeled off and discarded. The flat circular sheet of the RPE-choroid tissue was carefully removed with forceps, placed on the flat spoon and transported to the Petri dish where the “basal” round window of the Ussing-type chamber (containing metal mesh) was placed and covered with Ringer's solution. The choroid-RPE circular sheet was placed on the metal mesh of the“basal” window with choroid side down. The RPE side of the RPE-choroid sheet was covered with the nylon mesh shown, followed by clipping with the “apical” portion of the Ussing-type chamber window.
# The pre-warmed Ussing-like chambers were removed from the thermo-jacketed stand, freed from the PBS solution, and disassembled. […]
# Pre-warmed Ringer's solution was added first to the apical side and then to the basal side of the chamber. The temperature within the chambers was checked and if it reached 35° C., the electrical resistance was measured using the modified electrode and the DVC-1000 Voltage/Current Clamp instrument (WPI, Inc.). […]
smiles,measurement,setting,value
"CCC[C@]12CCC(=O)C=C1c1c(cc(OCC(=O)O)c(Cl)c1Cl)C2 [DPOFA, [(R)-(+)-(5,6-dichloro 2,3,9,9a-tetrahydro 3-oxo-9a-propyl-1H-fluoren-7-yl)oxy]acetic acid]",inhibition of glial cell swelling and reactive gliosis,[1],effective inhibitor of glial cell swelling and reactive gliosis
same,stimulation of water transport across the bovine RPE-choroid complex,"[2]; ex vivo, apical to basal side, overall result",stimulated water transport
same,water transport at 6 μM compared with the higher concentrations,"[2]; first experiment, FIG. 1, 6 μM vs 20 μM and 60 μM",more significant transport of water than 20 μM and 60 μM
same,transport of water from apical to basal side (upward shift of basal capillary meniscus),"[2]; first experiment, FIG. 1, 6 μM, 20 μM, 60 μM DPOFA",stimulated significant increase in transport of water
same,movement of water from apical to basal side,"[2]; second experiment, FIG. 2, 6 μM, 20 μM, 60 μM DPOFA",increased the movement of water
same,concentration giving the strongest stimulation of water transport,"[2]; second experiment, FIG. 2, 6, 20, 60 μM tested",6 µM
